Legend:
[1] = Solubility/dispersibility of retinol in the Labrasol-HPGCD-water microemulsion system; assay type: physicochemical; conditions: final retinol concentration 1.2%; 15% Labrasol, 5% HPGCD in water
Excerpt: Any two components (examples: Labrasol®-water, HPXCD-water, or Labrasol®-HPXCD) were mixed (in different ratios) in different scintillation vials and then the third component was titrated to each vial until a clear-to-turbid or turbid-to-clear transition occurred (in simple situations). Finally wt % percentages data for each component (Labrasol®, water, and cyclodextrin) were plotted to construct the ternary phase diagram.
Cyclodextrin used: hydroxypropyl-X-cyclodextrin (X=alpha, beta, or gamma).
Drug can be dissolved in the individual components or any of the two-component combination systems, followed by microemulsion formulation. Alternatively Drug can be directly added to the previously prepared microemulsion phase followed by shaking until a clear solution is achieved (when the achievable drug concentration is known previously).

[2] = cited from earlier work

miscibility in Labrasol-HPGCD-water microemulsion system [1]: complete miscibility
Compound: CC1=C(/C=C/C(C)=C/C=C/C(C)=C/CO)C(C)(C)CCC1 [Retinol]
miscibility in water [2]: immiscible

From patent publication US9018236B2, “Cyclodextrin-based microemulsions, and dermatological uses thereof” (Precision Dermatology, Inc., priority 2012, dated 2015)
